Test results taken from US20120258172A1, “Compositions For The Treatment of Central Nervous System Disorders Including Depression Employing Novel Drug Combination Therapy To Reduce Suicidality In Patients” (priority 2010, published 2012).

Columns and labels:
[1] = tested on: severely depressed patients with suicidal thoughts and behaviors; test: Phase II trial: Sheehan Suicidality Tracking Scale (S-STS); assay type: in vivo, human
Description: (§1) Ninety-three patients were screened and 80 subjects were identified who were between the ages of 18 to 75, inclusive, and met the criteria for major depressive disorder (MDD), dysthymia, depression not otherwise specified and/or borderline personality disorder as defined by Diagnostic and Statistical Manual-IV-TR and confirmed by the Mini International Neuropsychological Interview (MINI).
Selected subjects scored >15 on the Montgomery-Åsberg Depression Rating Scale and >8 on the Sheehan Suicidality Tracking Scale (S-STS) at Screening and Baseline Visits. Subjects were excluded if they had current, unstable and significant medical conditions (a history of unstable Thyroid disorders, a history of seizure disorders, tumors or other central nervous system (CNS) condition that predisposes the patient to risk of seizure), pregnant or lactating, had any abnormal clinical laboratory test results, or ECG results which were judged by the investigator as clinically significant, a history of intolerance or hypersensitivity to citalopram, other SSRIs, or lithium, a history or current diagnosis of bipolar mood disorder, psychosis, schizophrenia or dementia, were currently involved in another clinical trial or had participated in another clinical trial less than thirty days prior, or had current or prior treatment with citalopram or escitalopram. Psychotropic medications (anti-psychotics, anti-depressants, and mood stabilizers) were excluded during the treatment phase and required a twenty-four hour washout period prior to the first dose of study medication. Diuretics, analgesics, benzodiazepines and opiates were used with caution.
(§2) Efficacy was measured by taking S-STS (Sheehan-Suicidality Tracking Scale (Sheehan, 2009)) scores at Baseline and at each visit for 4 weeks of treatment or until end-of-treatment and measuring the change from baseline in the S-STS total score at week 4. Secondary efficacy variables were the BHS (Beck Hopelessness Scale (Beck, Steer, 1988)), BSS (Beck Scale for Suicide Ideation (Beck and Steer, 1991)), C-SSRS (Columbia Suicide Severity Rating Scale (Posner et al., 2009) and CGI (Clinical Global Impression Study (Guy, 1976)) changes at week 4. Safety measures were collected and evaluated throughout the trial. These included Adverse Events (AEs), laboratory parameters, physical examinations, ECGs and vital signs and weight measurements. Adverse events were any untoward medical event occurring in a subject administered study drug, irrespective of whether it has a causal relationship to the study drug. An adverse event could therefore be any unfavorable or unintended sign (including abnormal laboratory findings, for example), symptom, or disorder temporarily associated with study drug, whether or not considered related to the study drug. Adverse Events among the 80 participants were as follows:
All significance tests were two-sided. Statistical significance was assessed at the p≦0.05 level for main effects, and significance at the p≦0.10 level was considered a trend indicating efficacy. Missing values were handled using the last observation carried forward (LOCF) technique. The primary analysis population for inference was the intention-to-treat (ITT) population.

[2] = tested on: severely depressed patients with suicidal thoughts and behaviors; test: Phase II trial: Montgomery-Åsberg Depression Rating Scale (MADRS); assay type: in vivo, human; conditions: all patients assigned, n = 40
Description: as §1
(§3) Selected subjects scored >15 on the Montgomery-Åsberg Depression Rating Scale and >8 on the Sheehan Suicidality Tracking Scale (S-STS) at Screening and Baseline Visits. […]
(§4) Efficacy was measured by taking S-STS (Sheehan-Suicidality Tracking Scale (Sheehan, 2009)) scores at Baseline and at each visit for 4 weeks of treatment or until end-of-treatment and measuring the change from baseline in the S-STS total score at week 4. […]
(§5) All significance tests were two-sided. Statistical significance was assessed at the p≦0.05 level for main effects, and significance at the p≦0.10 level was considered a trend indicating efficacy. […]

[3] = tested on: severely depressed patients with suicidal thoughts and behaviors; test: Phase II trial: Clinical Global Impression (CGI) severity; assay type: in vivo, human; conditions: n = 40 per arm
Description: as §1, §3, §4, §5

[4] = tested on: severely depressed patients with suicidal thoughts and behaviors; test: Phase II trial: Beck Scale for Suicide Ideation (BSS); assay type: in vivo, human; conditions: n = 40 per arm
Description: as §1, §3, §4, §5

[5] = tested on: severely depressed patients with suicidal thoughts and behaviors; test: Phase II trial: Beck Hopelessness Scale (BHS); assay type: in vivo, human; conditions: n = 40 per arm
Description: as §1, §3, §4, §5

[6] = tested on: severely depressed patients with suicidal thoughts and behaviors; test: Phase II trial: adverse events; assay type: in vivo, human
Description: Eligible subjects were evaluated for safety parameters prior to and throughout the screening through a variety of methods including an ECG, physical exam, vital sign taking and clinical laboratory testing. A standard 12-lead ECG was performed at Screening (Visit 1) and at Week 4 (Visit 6 or Early Termination Visit). Physical examinations included determination of general appearance, mental status, skin, neck (including thyroid), eyes, ears, nose, throat, heart, lungs, abdomen, lymph nodes, musculoskeletal system, and nervous system. Vital signs included respiratory rate, radial pulse and systolic and diastolic blood pressures. Vital signs were collected in the seated position. Clinical Laboratory Testing Parameters included a Complete Metabolic Panel (Na, K, Cl, CO2, Glu, BUN, Cr, Ca, TP, Alb, TBili, AP, AST, ALT), Hematology CBC (Hgb, Hct, RBC, WBC, Pit, Diff) and TSH (w/reflex T-4). Serum HCG is performed for all females, and Urine Analysis is completed for all subjects.
as §2, with “follows: […]” for “follows:”

[7] = tested on: severely depressed patients with suicidal thoughts and behaviors; conditions: of 40 patients in the arm
Description: (§6) All subjects received 20 mg citalopram and were randomized to either 300 mg lithium carbonate/day or placebo for 4 weeks of Double-Blind Treatment. Patients were instructed to take one capsule from the bottle and two tablets from the blister card one time daily, in the morning, orally with food. If the patient was unable to tolerate morning dosing, patient may be switched to evening dosing as long as there was 24 hours minimum between doses.
Subjects were considered to have completed the study if they completed all of the visits.

[8] = Phase II trial: serum lithium level; assay type: in vivo, human; conditions: subgroup n = 11 of 40 on 300 mg lithium carbonate/day + 20 mg citalopram (3 at 0.5, 3 at 0.6, 5 at 0.7); week 4
Description: as §6

In the case of `CN(C)CCCC1(c2ccc(F)cc2)OCc2cc(C#N)ccc21` (stereo not shown) [Citalopram + Placebo, citalopram], the “# With Full S-STS Symptom Remission” value ([1]; all patients assigned, n = 40) is reported as 6, the “# With No change in S-STS Symptoms” value ([1]; all patients assigned, n = 40) is reported as 12 and the “# with Worsening of S-STS Symptoms” value ([1]; all patients assigned, n = 40) is reported as 2. The “% With Full S-STS Symptom Remission” value ([1]; all patients assigned, n = 40) was “(15%)”, the “% With No change in S-STS Symptoms” value ([1]; all patients assigned, n = 40) was “(30%)” and the “% with Worsening of S-STS Symptoms” value ([1]; all patients assigned, n = 40) was “(5%)”. The “Mean Total S-STS Change Score” value ([1]; all patients assigned, n = 40) was 4.8, the “change in the mean total S-STS” value ([1]; among the 64 completers) was 5.4±5.3 and the “Mean Total MADRS Change Score” value [2] was 9.8. For the same compound, the “CGI (Severity), Mean (SD)” value ([3]; Baseline) was 4.9 (0.8), the “CGI (Severity), Mean (SD)” value ([3]; End of Study (week 4, LOCF)) was 3.3 (1.8) and the “BSS, Mean (SD)” value ([4]; Baseline) was 16.2 (6.7). For the same compound, the “BSS, Mean (SD)” value ([4]; End of Study (week 4, LOCF)) was 9.1 (8.2), the “BHS, Mean (SD)” value ([5]; Baseline) was 16.3 (3.4) and the “BHS, Mean (SD)” value ([5]; End of Study (week 4, LOCF)) was 11.8 (5.4). The “Adverse Events per Patient” value ([6]; all patients assigned, n = 40) was 1.0, the “Anxiousness, % of patients” value ([6]; n = 40 per arm, 4 weeks) was 3% and the “Anxiousness, number of patients” value ([6]; n = 40 per arm, 4 weeks) was 1. The “Common Cold, % of patients” value ([6]; n = 40 per arm, 4 weeks) was 5%, the “Common Cold, number of patients” value ([6]; n = 40 per arm, 4 weeks) was 2 and the “Decreased Appetite, % of patients” value ([6]; n = 40 per arm, 4 weeks) was 5%. For the same compound, the “Decreased Appetite, number of patients” value ([6]; n = 40 per arm, 4 weeks) was 2, the “Dizziness, % of patients” value ([6]; n = 40 per arm, 4 weeks) was 5% and the “Dizziness, number of patients” value ([6]; n = 40 per arm, 4 weeks) was 2. The “Headaches, % of patients” value ([6]; n = 40 per arm, 4 weeks) was 1 (1%), the “Headaches, number of patients” value ([6]; n = 40 per arm, 4 weeks) was 1 (1%) and the “Nausea, % of patients” value ([6]; n = 40 per arm, 4 weeks) was 3%. The “Nausea, number of patients” value ([6]; n = 40 per arm, 4 weeks) was 5, the “Restlessness, % of patients” value ([6]; n = 40 per arm, 4 weeks) was 5% and the “Restlessness, number of patients” value ([6]; n = 40 per arm, 4 weeks) was 2. The “Somnolence, % of patients” value ([6]; n = 40 per arm, 4 weeks) was 18%, the “Somnolence, number of patients” value ([6]; n = 40 per arm, 4 weeks) was 7 and the “Total Events (most frequent and serious adverse events)” value ([6]; n = 40 per arm, 4 weeks) was 23. The “Vomiting, % of patients” value ([6]; n = 40 per arm, 4 weeks) was 3%, the “Vomiting, number of patients” value ([6]; n = 40 per arm, 4 weeks) was 1 and the “patients who discontinued participation because of Adverse Event” value [7] was 1.

Compound `[Li]` [lithium] has a serum lithium level [8] of at least 0.5 mEq/L.
